The values below come from patent US6133292A, “Diaryl-5-alkyl-5-methyl-2-(5H)-furanones as selective cyclooxygenase-2-inhibitors” (Merck Frosst Canada & Co., priority 1998, dated 2000).

Each structure is given as a SMILES string.

This data set in a line: Pharmacokinetics in rats (half-life). Format: in vivo, rat (male Sprague Dawley). As to conditions: rat, blood, read-out: T 1/2 in Rats (converted). From the text: Per Os Pharmacokinetics in Rats--Procedure:
The animals are housed, fed and cared for according to the Guidelines of the Canadian Council on Animal Care. Male Sprague Dawley rats (325-375 g) are fasted overnight prior to each PO blood level study. The rats are placed in the restrainer one at a time and the box firmly secured. The zero blood sample is obtained by nicking a small (1 mm or less) piece off the tip of the tail. The tail is then stroked with a firm but gentle motion from the top to the bottom to milk out the blood. Approximately 1 mL of blood is collected into a heparirnized vacutainer tube.
Compounds are prepared as required, in a standard dosing volume of 10 mL/kg, and administered orally by passing a 16 gauge, 3" gavaging needle into the stomach. Subsequent bleeds are taken in the same manner as the zero bleed except that there is no need to nick the tail again. The tail is cleaned with a piece of gauze and milked/stroked as described above into the appropriately labelled tubes.
Immediately after sampling, blood is centrifuged, separated, put into clearly marked vials and stored in a freezer until analysed. Typical time points for determination of rat blood levels after PO dosing are 0, 15 min, 30 min, 1 h, 2 h, 4 h, and 6 h.
After the 4 hr time point bleed, food is provided to the rats ad libitum. Water is provided at all times during the study.
The following vehicles may be used in PO rat blood level determinations:
Compounds for PO blood levels can be in suspension form. For better dissolution, the solution can be placed in a sonicator for approximately 5 minutes.
For analysis, aliquots are diluted with an equal volume of acetonitrile and centrifuged to remove protein precipitate. The supernatant is injected directly onto a C-18 HPLC column with UV detection. Quantitation is done relative to a clean blood sample spiked with a known quantity of drug.
Intravenous Pharmacokinetics in Rats--Procedure
The animals are housed, fed and cared for according to the Guidelines of the Canadian Council on Animal Care. Male Sprague Dawley (325-375 g) rats are placed in plastic shoe box cages with a suspended floor, cage top, water bottle and food. The compound is prepared as required, in a standard dosing volume of 1 mL/kg.
Rats are bled for the zero blood sample and dosed under CO2 sedation. The rats, one at a time, are placed in a primed CO2 chamber and taken out as soon as they have lost their righting reflex. The rat is then placed on a restraining board, a nose cone with CO2 delivery is placed over the muzzle and the rat restrained to the board with elastics. With the use of forceps and scissors, the jugular vein is exposed and the zero sample taken, followed by a measured dose of compound which is injected into the jugular vein. Light digital pressure is applied to the injection site, and the nose cone is removed. The time is noted. This constitutes the zero time point.
The 5 min bleed is taken by nicking a piece (1-2 mm) off the tip of the tail. The tail is then stroked with a firm but gentle motion from the top of the tail to the bottom to milk the blood out of the tail. Approximately 1 mL of blood is collected into a heparinized collection vial. Subsequent bleeds are taken in the same fashion, except that there is no need to nick the tail again. The tail is cleaned with a piece of gauze and bled, as described above, into the appropriate labelled tubes. Typical time points for determination of rat blood levels after I.V. dosing are either a) 0, 5 min, 15 min, 30 min, 1 h, 2 h, 6 h, or b) 0, 5 min, 30 min, 1 h, 2 h, 4 h, 6 h.
The following vehicles may be used in IV rat blood level determinations:
DMSO (dimethylsulfoxide): Restricted to a dose volume of 0.1 mL per animal
PEG 200: Not more than 60% mixed with 40% sterile water --1 mL/kg
With Dextrose, either sodium bicarbonate or sodium carbonate can be added if the solution is cloudy. […]
With `CC1(C)OC(=O)C(c2ccc(F)cc2)=C1c1ccc(S(C)(=O)=O)cc1` [Compound T3-1, 3-(4-fluorophenyl)-5,5-dimethyl-4-[4-(methylsulfonyl)phenyl]-2,5-dihydro-2-furanone, reference compound], the half-life was above 24 h. Under `CCC1(C)OC(=O)C(c2ccc(F)cc2)=C1c1ccc(S(C)(=O)=O)cc1` (centres unmarked) [c, 5-ethyl-3-(4-fluorophenyl)-5-methyl-4-[4-(methylsulfonyl)phenyl]-2,5-dihydro-2-furanone] stands 3 h.

For `CC[C@@]1(C)OC(=O)C(c2ccc(F)c(F)c2)=C1c1ccc(S(C)(=O)=O)cc1` [h, (5R)-3-(3,4-difluorophenyl)-5-ethyl-5-methyl-4-[4-(methylsulfonyl)phenyl] -2,5-dihydro-2-furanone], the half-life was 3.6 h.

For `CC[C@]1(C)OC(=O)C(c2ccc(F)c(F)c2)=C1c1ccc(S(C)(=O)=O)cc1` [i, (5S)-3-(3,4-difluorophenyl)-5-ethyl-5-methyl-4-[4-(methylsulfonyl)phenyl] -2,5-dihydro-2-furanone], the half-life was 4.8 h. For `CCCC1(C)OC(=O)C(c2ccc(F)cc2)=C1c1ccc(S(C)(=O)=O)cc1` (centres unmarked) [n, 3-(4-fluorophenyl)-5-methyl-4-[4-(methylsulfonyl)phenyl]-5-propyl-2,5-dihydro-2-furanone], the half-life is around 1 h.
